Results on 4 substances are retold here after patent US9944687B2, “Compounds and their effects on feeding behaviour” (Imperial Innovations Limited, priority 2011, dated 2018).

This experiment is described as follows: pair feeding in rats (food intake and body weight). The class given is in vivo, Male Wistar rats. Conditions: for body weight gain versus corresponding pair-fed (PF) group: 10 days; for body weight gain versus corresponding pair-fed (PF) group / overall body weight change by the end of the 10 day test period versus saline control: FIG. 12b; for total food intake over 10 days / overall body weight change by the end of the 10 day test period versus saline control: daily injection, exendin-4 30, 285 100, 373 50, 398 200 nmol/kg; for total food intake over 10 days: FIG. 12a. From the text:
Pair feeding is a technique used to separate the weight loss observed in a cohort of animals which has been caused by appetite suppression from the weight loss caused by the induction of metabolic changes. Pair-feeding studies require daily measurement of body weight (BW) and food intake (FI). In pair-feeding studies, rats were divided into three weight-matched groups. Group 1 (the “saline” group) were given a daily injection of saline and allowed access to ad libitum food. Group 2 (identified by the code of the compound administered) were given daily injection of a selected compound of the invention and allowed access to ad libitum food.

Where no end group is shown, it is not given here.

On to “HSQGTFTSDYSKYLDSQAVHLFIQWLLNGGPSSGAPPPS [compound 237]”, for which, under “100 nmol/kg daily”, the “body weight compared to the saline control” value is reported as “reduction in body weight compared to the saline control” and the “body weight reduction versus pair-fed (G237 PF) group” value is listed as “not solely mediated by a reduction in food intake”.
For the substance “His Ser Gln Gly Thr Phe Thr Ser Asp Tyr Ser Lys Tyr Leu Glu Ser Gln Ala Val His Leu Phe Ile Glu Trp Leu Lys Asn Gly-NH2 (HSQGTFTSDYSKYLESQAVHLFIEWLKNG-NH2) [compound 373]”, the “body weight gain versus corresponding pair-fed (PF) group” value is “lower weight gains than the corresponding paired feeding groups”, the “total food intake over 10 days” value is “less overall food intake” and the “overall body weight change by the end of the 10 day test period versus saline control” value (shortened to “overall body weight change by the end”) was “lower body weight gain than the saline control group”.
As for “His Ser Gln Gly Thr Phe Thr Ser Asp Tyr Ser His Tyr Leu Asp Ser Lys Ala Val His Leu Phe Ile Gln Trp Leu Leu Asn Gly-NH2 (HSQGTFTSDYSHYLDSKAVHLFIQWLLNG-NH2) [compound 285]”, the “body weight gain versus corresponding pair-fed (PF) group” value is reported as “lower weight gains than the corresponding paired feeding groups”, the “total food intake over 10 days” value was “less overall food intake” and the “overall body weight change by the end” value is “lower body weight gain than the saline control group”.
Regarding “His Ser Gln Gly Thr Phe Thr Ser Asp Tyr Ser Lys Tyr Leu Asp Ser Gln Ala Val Arg Leu Phe Ile Glu Trp Leu Leu Asn Gly-NH2 (HSQGTFTSDYSKYLDSQAVRLFIEWLLNG-NH2) [compound 398]”, the “body weight gain versus corresponding pair-fed (PF) group” value was “lower weight gains than the corresponding paired feeding groups”, the “total food intake over 10 days” value was “less overall food intake” and the “overall body weight change by the end” value is recorded as “lower body weight gain than the saline control group”.
